The target in the experiment is T1, human Fatty Acid Synthase (Homo sapiens, UniProt P49327).
T1 construct: made in house
Briefly: Human FAS enzyme assay (decrease in NADPH fluorescence). The format is biochemical. Conditions: for IC50s in the range of about 0.001 μM to about 30 μM: compounds excluded from the claims by proviso; for inhibition at 100 µM: % inhibition at a concentration of 100 micromolar. An outline of the steps: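 In-house human FAS (0.4 μg) was preincubated 15 min at RT with compound and NADPH (added at 166.6 μM) in 0.1 M Tris pH 7.5, 1 mM glutathione, 0.05% BSA. Malonyl-/acetyl-CoA (500/150 μM in substrate mix) was then added for 60 min. Readout was NADPH fluorescence loss (ex 340/em 460) over a time-zero read, with IC50 from a sigmoid fit.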

This is an account of results in patent US20090105305A1, “Therapeutic Agents - 550” (AstraZeneca AB, priority 2006, published 2009).

What is called inhibition is the relative decrease from the control value, in per cent. A high value points to a response far below the control. In general, IC50 refers to the concentration that gives 50% inhibition. The low end stands for inhibition by little substance, the high end for a need for much substance.

Structures are written as SMILES.

T1 sequence (P49327 whole entry): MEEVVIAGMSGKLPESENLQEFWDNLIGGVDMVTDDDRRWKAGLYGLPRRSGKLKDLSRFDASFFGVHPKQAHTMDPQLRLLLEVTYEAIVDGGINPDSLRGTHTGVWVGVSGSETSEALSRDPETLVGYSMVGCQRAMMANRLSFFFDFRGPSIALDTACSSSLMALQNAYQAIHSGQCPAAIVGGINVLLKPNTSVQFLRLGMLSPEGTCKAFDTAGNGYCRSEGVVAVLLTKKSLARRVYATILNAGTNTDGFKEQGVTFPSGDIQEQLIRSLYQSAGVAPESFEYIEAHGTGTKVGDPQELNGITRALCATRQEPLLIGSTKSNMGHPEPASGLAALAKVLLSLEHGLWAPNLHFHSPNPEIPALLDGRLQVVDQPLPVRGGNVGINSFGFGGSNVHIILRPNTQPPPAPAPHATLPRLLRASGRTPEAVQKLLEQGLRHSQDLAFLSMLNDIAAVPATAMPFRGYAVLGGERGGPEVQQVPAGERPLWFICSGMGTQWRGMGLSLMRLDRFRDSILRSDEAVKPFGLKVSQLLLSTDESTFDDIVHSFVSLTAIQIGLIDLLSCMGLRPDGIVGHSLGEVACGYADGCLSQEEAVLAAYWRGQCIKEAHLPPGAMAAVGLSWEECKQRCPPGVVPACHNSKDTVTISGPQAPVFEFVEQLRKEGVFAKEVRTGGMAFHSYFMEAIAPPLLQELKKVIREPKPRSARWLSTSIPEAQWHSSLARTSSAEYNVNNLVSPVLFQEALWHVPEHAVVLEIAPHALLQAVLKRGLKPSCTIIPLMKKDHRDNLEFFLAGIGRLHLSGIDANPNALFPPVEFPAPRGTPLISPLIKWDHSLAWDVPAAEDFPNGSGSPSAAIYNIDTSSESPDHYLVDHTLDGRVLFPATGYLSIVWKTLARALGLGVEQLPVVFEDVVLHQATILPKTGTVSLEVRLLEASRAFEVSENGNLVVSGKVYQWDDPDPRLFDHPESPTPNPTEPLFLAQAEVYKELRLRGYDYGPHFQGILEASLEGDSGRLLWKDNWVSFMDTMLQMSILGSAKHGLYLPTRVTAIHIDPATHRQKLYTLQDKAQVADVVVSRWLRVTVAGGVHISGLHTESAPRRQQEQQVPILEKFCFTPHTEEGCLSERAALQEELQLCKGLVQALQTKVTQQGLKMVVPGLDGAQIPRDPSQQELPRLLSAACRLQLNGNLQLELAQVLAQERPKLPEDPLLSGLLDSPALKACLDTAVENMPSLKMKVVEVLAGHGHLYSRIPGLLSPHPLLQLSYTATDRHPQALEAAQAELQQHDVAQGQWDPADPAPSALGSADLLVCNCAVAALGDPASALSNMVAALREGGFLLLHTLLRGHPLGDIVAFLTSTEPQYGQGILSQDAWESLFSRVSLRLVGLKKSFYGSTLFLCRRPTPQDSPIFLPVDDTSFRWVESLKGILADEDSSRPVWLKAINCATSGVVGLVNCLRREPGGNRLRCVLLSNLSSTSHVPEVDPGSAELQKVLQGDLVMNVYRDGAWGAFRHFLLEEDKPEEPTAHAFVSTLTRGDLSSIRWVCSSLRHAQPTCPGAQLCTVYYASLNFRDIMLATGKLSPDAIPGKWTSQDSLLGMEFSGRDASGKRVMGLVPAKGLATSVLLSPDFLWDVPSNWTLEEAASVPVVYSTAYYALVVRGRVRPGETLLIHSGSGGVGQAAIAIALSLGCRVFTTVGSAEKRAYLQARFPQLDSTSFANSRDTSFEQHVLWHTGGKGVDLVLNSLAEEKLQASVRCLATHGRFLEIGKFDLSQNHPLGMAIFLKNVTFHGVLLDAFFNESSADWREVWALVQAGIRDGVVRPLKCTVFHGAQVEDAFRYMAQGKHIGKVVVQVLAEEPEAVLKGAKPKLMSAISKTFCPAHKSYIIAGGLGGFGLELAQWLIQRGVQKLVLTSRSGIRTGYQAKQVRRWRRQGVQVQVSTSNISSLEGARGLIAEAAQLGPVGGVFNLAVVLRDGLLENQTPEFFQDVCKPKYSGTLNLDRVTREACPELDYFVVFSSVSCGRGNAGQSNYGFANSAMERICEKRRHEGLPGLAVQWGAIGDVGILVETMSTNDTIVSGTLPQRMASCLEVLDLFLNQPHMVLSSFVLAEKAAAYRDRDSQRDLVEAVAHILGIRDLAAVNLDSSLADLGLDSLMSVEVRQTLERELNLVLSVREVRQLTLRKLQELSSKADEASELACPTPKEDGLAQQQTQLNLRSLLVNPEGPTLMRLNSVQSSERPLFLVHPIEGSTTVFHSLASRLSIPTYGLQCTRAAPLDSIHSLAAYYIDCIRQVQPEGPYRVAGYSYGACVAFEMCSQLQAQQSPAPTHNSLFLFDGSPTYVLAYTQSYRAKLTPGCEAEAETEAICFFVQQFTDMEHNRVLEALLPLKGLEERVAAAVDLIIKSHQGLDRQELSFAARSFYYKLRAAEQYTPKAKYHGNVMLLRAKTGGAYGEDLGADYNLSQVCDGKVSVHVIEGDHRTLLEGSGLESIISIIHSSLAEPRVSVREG

Consider `Cc1ccc(C(=O)N2CCC(c3ccc(C#CC(C)(C)N)cc3)CC2)cc1NS(C)(=O)=O` [N-[5-[4-[4-(3-amino-3-methylbut-1-ynyl)phenyl]piperidine-1-carbonyl]-2-methylphenyl]methanesulfonamide], for which the “IC50s in the range of about 0.001 μM to about 30 μM” value (shortened to “IC50s in the range”) was “do not have IC50s in the range of about 0.001 μM to about 30 μM”.

Take `Cc1ccc(C(=O)N2CCC(c3ccc(C#N)cc3)CC2)cc1NS(=O)(=O)C1CCN(C)CC1` [Example 125, N-[5-[4-(4-cyanophenyl)piperidine-1-carbonyl]-2-methyl-phenyl]-1-methyl-piperidine-4-sulfonamide]: the inhibition at 100 µM was determined as 98%.

Consider `Cc1ccc(NS(=O)(=O)Cc2ccc(S(C)(=O)=O)cc2)cc1C(=O)N1CCC(c2ccc(C#N)cc2)CC1` [Example 54, N-[3-[4-(4-cyanophenyl)piperidine-1-carbonyl]-4-methyl-phenyl]-1-(4-methylsulfonylphenyl)methanesulfonamide], for which testing at 100 µM gave an inhibition of 84%.

`Cc1ccc(NS(=O)(=O)Cc2ccc(F)cc2F)cc1C(=O)N1CCC(c2ccc(C#N)cc2)CC1` [Example 56, N-[3-[4-(4-cyanophenyl)piperidine-1-carbonyl]-4-methyl-phenyl]-1-(2,4-difluorophenyl)methanesulfonamide] came in with an inhibition at 100 µM of 89%.

For the compound `Cc1ccc(C(=O)N2CCC(O)(c3cccc(C(F)(F)F)c3)CC2)cc1NS(C)(=O)=O` [N-[5-[4-hydroxy-4-[3-(trifluoromethyl)phenyl]piperidine-1-carbonyl]-2-methylphenyl]methanesulfonamide], the “IC50s in the range” value is “do not have IC50s in the range of about 0.001 μM to about 30 μM”.

As to `CNC(=O)NCc1ccc(C2CCN(C(=O)c3ccc(C)c(NS(C)(=O)=O)c3)CC2)cc1` [Example 233, 1-[[4-[1-(3-methanesulfonamido-4-methylbenzoyl)piperidin-4-yl]phenyl]methyl]-3-methylurea], the inhibition at 100 µM was 81.8%.

`Cc1ccc(C(=O)N2CCC(c3ccc(C#N)cc3)CC2)cc1NS(=O)(=O)c1ccc(Cl)cc1` [Example 3, 4-chloro-N-[5-[4-(4-cyanophenyl)piperidine-1-carbonyl]-2-methyl-phenyl]benzenesulfonamide] came in with an inhibition at 100 µM of 96%.

The compound `Cc1ccc(C(=O)N2CCC(c3ccc(C#N)cc3)CC2)cc1NS(=O)(=O)CCCNC(=O)c1ccccc1` [Example 133, N-[3-[[5-[4-(4-cyanophenyl)piperidine-1-carbonyl]-2-methyl-phenyl]sulfamoyl]propyl]benzamide] returned an inhibition at 100 µM of 91%.

`Cc1ccc(C(=O)N2CCC(c3ccc(C#N)cc3)CC2)cc1NS(=O)(=O)CC(=O)N1CCOCC1` [Example 88, N-[5-[4-(4-cyanophenyl)piperidine-1-carbonyl]-2-methyl-phenyl]-2-morpholin-4-yl-2-oxo-ethanesulfonamide] gave an inhibition at 100 µM of 89%.

Compound `Cc1ccc(C(=O)N2CCC(c3ccc(C#N)cc3)CC2)cc1NS(=O)(=O)c1ccccc1C(=O)N(C)C` [Example 206, 2-[[5-[4-(4-cyanophenyl)piperidine-1-carbonyl]-2-methylphenyl]sulfamoyl]-N,N-dimethylbenzamide] came in with an inhibition at 100 µM of 76%.

In the case of `COc1ccccc1C1CCN(C(=O)c2ccc(C)c(NS(C)(=O)=O)c2)CC1` [N-[5-[4-(2-methoxyphenyl)piperidine-1-carbonyl]-2-methylphenyl]methanesulfonamide], the “IC50s in the range” value is reported as “do not have IC50s in the range of about 0.001 μM to about 30 μM”.

For `Cc1ccc(C(=O)N2CCC(c3ccc(Oc4nccc(C(F)(F)F)n4)cc3)CC2)cc1NS(C)(=O)=O` [Example 189, N-[2-methyl-5-[4-[4-[4-(trifluoromethyl)pyrimidin-2-yl]oxyphenyl]piperidine-1-carbonyl]phenyl]methanesulfonamide], testing at 100 µM gave an inhibition of 88%.

Consider `Cc1ccc(C(=O)N2CCC(c3cccc(C#N)c3)CC2)cc1NS(C)(=O)=O` [N-[5-[4-(3-cyanophenyl)piperidine-1-carbonyl]-2-methylphenyl]methanesulfonamide], for which the “IC50s in the range” value is listed as “do not have IC50s in the range of about 0.001 μM to about 30 μM”.

With `C=CCS(=O)(=O)Nc1cc(C(=O)N2CCC(c3ccc(C#N)cc3)CC2)ccc1C` [Example 146, N-(5-(4-(4-cyanophenyl)piperidine-1-carbonyl)-2-methylphenyl)prop-2-ene-1-sulfonamide], the inhibition at 100 µM came to 90%.

`Cc1ccc(C(=O)N2CCC(c3ccc(C#N)cc3)CC2)cc1NS(=O)(=O)CCC(=O)O` [Example 151, 3-[[5-[4-(4-cyanophenyl)piperidine-1-carbonyl]-2-methyl-phenyl]sulfamoyl]propanoic acid] gave an inhibition at 100 µM of 81%.

The compound `CCOC(=O)NCc1ccc(C2CCN(C(=O)c3ccc(C)c(NS(C)(=O)=O)c3)CC2)cc1` [Example 228, Ethyl N-[[4-[1-(3-methanesulfonamido-4-methylbenzoyl)piperidin-4-yl]phenyl]methyl]carbamate] gave an inhibition at 100 µM of 85.5%.

Consider `CNC(=O)c1cccc(S(=O)(=O)Nc2cc(C(=O)N3CCC(c4ccc(C#N)cc4)CC3)ccc2C)c1` [Example 83, 3-[[5-[4-(4-cyanophenyl)piperidine-1-carbonyl]-2-methyl-phenyl]sulfamoyl]-N-methyl-benzamide], for which 100 µM produced 98% inhibition.

`Cc1ccc(C(=O)N2CCC(c3ccc(C#N)cc3)CC2)cc1NS(=O)(=O)c1ccccc1C(=O)NCCO` [Example 207, 2-[[5-[4-(4-cyanophenyl)piperidine-1-carbonyl]-2-methylphenyl]sulfamoyl]-N-(2-hydroxyethyl)benzamide] returned an inhibition at 100 µM of 75%.

Compound `Cc1ccc(C(=O)N2CCC(O)(c3ccc(C(F)(F)F)cc3)CC2)cc1NS(C)(=O)=O` [Example 215, N-[5-[4-hydroxy-4-[4-(trifluoromethyl)phenyl]piperidine-1-carbonyl]-2-methylphenyl]methanesulfonamide] displayed an inhibition at 100 µM of 56%.

Compound `Cc1ccc(C(=O)N2CCC(c3ccc(C#CC(C)(C)O)cc3)CC2)cc1NS(C)(=O)=O` [Example 252, N-[5-[4-[4-(3-hydroxy-3-methylbut-1-ynyl)phenyl]piperidine-1-carbonyl]-2-methylphenyl]methanesulfonamide] yielded an IC50 (unit inferred) of 3.33 µM.

As to `Cc1ccc(C(=O)N2CCC(c3ccc(C#N)cc3)CC2)cc1NS(=O)(=O)CCNC(=O)c1ccccc1` [Example 86, N-[2-[[5-[4-(4-cyanophenyl)piperidine-1-carbonyl]-2-methyl-phenyl]sulfamoyl]ethyl]benzamide], the inhibition at 100 µM was determined as 100%.

`N#Cc1ccc(C2CCN(C(=O)c3cc(NS(=O)(=O)Cc4ccccc4)ccc3F)CC2)cc1` [Example 199, N-[3-[4-(4-cyanophenyl)piperidine-1-carbonyl]-4-fluorophenyl]-1-phenylmethane-sulfonamide]: testing at 100 µM gave an inhibition of 79%.

With `Cc1ccc(NS(=O)(=O)c2ccc(C#N)cc2)cc1C(=O)N1CCC(c2ccc(C#N)cc2)CC1` [Example 49, 4-cyano-N-[3-[4-(4-cyanophenyl)piperidine-1-carbonyl]-4-methyl-phenyl]benzenesulfonamide], the inhibition at 100 µM stood at 83%.

For the compound `Cc1ccc(C(=O)N2CCC(O)(c3ccc(Br)cc3)CC2)cc1NS(C)(=O)=O` [Example 200, N-[5-[4-(4-bromophenyl)-4-hydroxypiperidine-1-carbonyl]-2-methylphenyl]methane-sulfonamide], testing at 100 µM gave an inhibition of 48%.

`Cc1ccc(C(=O)N2CCC(c3ccc(C#N)cc3)CC2)cc1NS(=O)(=O)Cc1cccc(F)c1` [Example 27, N-[5-[4-(4-cyanophenyl)piperidine-1-carbonyl]-2-methyl-phenyl]-1-(3-fluorophenyl)methanesulfonamide]: at 100 µM the inhibition was 96%.

The compound `CS(=O)(=O)Nc1cc(C(=O)N2CCC(c3ccc(C#N)cc3)CC2)ccc1S(C)(=O)=O` [Example 210, N-[5-[4-(4-cyanophenyl)piperidine-1-carbonyl]-2-methylsulfonylphenyl]methanesulfonamide] registered an inhibition at 100 µM of 91%.

`Cc1ccc(C(=O)N2CCC(c3ccc(S(=O)(=O)NCCO)cc3)CC2)cc1NS(C)(=O)=O` [Example 220, N-(2-hydroxyethyl)-4-[1-(3-methanesulfonamido-4-methylbenzoyl)piperidin-4-yl]benzenesulfonamide] registered an inhibition at 100 µM of 85%.

Regarding `Cc1ccc(C(=O)N2CCC(c3ccc(C#N)cc3)CC2)cc1NS(=O)(=O)c1ccccc1C#N` [Example 20, 2-cyano-N-[5-[4-(4-cyanophenyl)piperidine-1-carbonyl]-2-methyl-phenyl]benzenesulfonamide], the inhibition at 100 µM was 85%.

`Cc1ccc(C(=O)N2CCC(c3ccc(C#N)cc3)CC2)cc1NS(=O)(=O)c1ccc(N2CCOCC2)nc1` [Example 93, N-[5-[4-(4-cyanophenyl)piperidine-1-carbonyl]-2-methyl-phenyl]-6-morpholin-4-yl-pyridine-3-sulfonamide] returned an inhibition at 100 µM of 79%.

Regarding `Cc1ccc(C(=O)N2CCC(c3ccc(C#N)cc3)CC2)cc1NS(=O)(=O)c1cccc(C(=O)NC(C)C)c1` [Example 85, 3-[[5-[4-(4-cyanophenyl)piperidine-1-carbonyl]-2-methyl-phenyl]sulfamoyl]-N-propan-2-yl-benzamide], the inhibition at 100 µM turned out to be 95%.

The compound `Cc1ccc(C(=O)N2CCC(c3ccc(C#N)cc3)CC2)cc1NS(=O)(=O)c1cccnc1` [Example 107, N-[5-[4-(4-cyanophenyl)piperidine-1-carbonyl]-2-methyl-phenyl]pyridine-3-sulfonamide] displayed an inhibition at 100 µM of 92%.

Compound `CCS(=O)(=O)Nc1cc(C(=O)N2CCC(c3ccc(C#N)cc3)CC2)ccc1C` [Example 11, N-[5-[4-(4-cyanophenyl)piperidine-1-carbonyl]-2-methyl-phenyl]ethanesulfonamide] came in with an inhibition at 100 µM of 88%.
